Source: patent publication US20050124594A1, “Method of treatment” (priority 1998, published 2005)

How the values were obtained:
[1] = test system: choroidal neovascularisation (CNV); test: Case report: prophylactic triamcinolone to the orbital floor at cataract surgery in a high risk eye; format: in vivo, human
From the text: A patient in whom prophylactic treatment was used was a person. There was marked macula degeneration in both eyes. They underwent cataract surgery late in July 1995 and developed neovascularisation of the right macula within three weeks. They also had cataract in the left eye but surgery was deferred for fear of developing the same complication. In the left macula there were greater than 5 drusen, some of them larger than 500 μm, and coarse pigment clumping, all high risk features. The cataract in the left eye continued to advance. By August 1997 it was very dense, reducing the visual acuity to 6/24. In spite of the high risk of neovascularisation, they underwent surgery in October 1997. As a prophylactic measure to reduce the risk of subsequent CNV, they received 40 mg of triamcinolone to the orbital floor beneath the eye at the time of surgery. The visual acuity improved to 6/12. They progressed well until June 1998 when they developed left CNV. By this time the effect of the triamcinolone had worn off.

[2] = test system: choroidal neovascularisation (CNV); test: Illustrative case: intravitreal steroid treatment for the prevention of neovascularisation in a patient at high risk; format: in vivo, human
Protocol: This case illustrates how intravitreal steroid treatment might be used to prevent CNV in a high risk eye.
A patient presents with recent loss of vision in their right eye. Retinal haemorrhages and exudation are seen in the right macula. […] This is treated on its merits, but the patient is already legally blind (visual acuity less than 6/60) and likely to remain so.
The patient is otherwise healthy and looks as if they might well live another ten or twenty years.
It is explained to the patient that it has been well shown that the risk of developing neovascularisation in their left eye is roughly 90% over the next five years. Should this occur, the chance of saving reading and driving vision with conventional treatments would be less than 25%. The patient is informed that, since the formation of new blood vessels appears in this disease to be linked to chronic, low grade inflammation inside the eye, we believe that an injection of steroid into the eye may reduce the risk of developing neovascularisation in their left eye. […] Serious side effects of the injection are rare. The patient returns in one week, having considered their options, and elects to receive the treatment.
The patient's left eye is anaesthetised and sterilised with topical medications. An injection into the vitreous of 4 mg of triamcinolone (0.1 mL of a 40 mg/mL solution) is performed. The patient is reviewed at 1 and 6 weeks after the injection, then at 3, 6 and 12 months. […] A second injection of triamcinolone is instilled, with the patients consent, and they are reviewed with the same frequency as after the first injection. Two years after the first injection the patient's visual acuity remains 6/9. Further treatments are deferred and the patient is reviewed every 6 months.

[3] = Clinical observations of side effects of intravitreal triamcinolone; format: in vivo, human
From the text: Intravitreal triamcinolone presents a manageable side effect profile. Of the several hundred patients treated through the Sydney Eye Hospital over the last three years, no case of endophthalmitis, retinal detachment or vitreous haemorrhage has been reported. The commonest side effect is a modest elevation of the intraocular pressure of around 5 mmHg. This has been controlled with glaucoma medication where necessary, although if the optic nerve is not compromised and the pressure is less than 25 mmHg it is often reasonable to observe without treatment. The pressure invariably returns to normal after the drug wears off, which is usually after approximately 6 months.

[4] = test system: choroidal neovascularisation in age-related macular degeneration; conditions: introduced into the vitreous; cited from earlier work
[5] = 12 months after intravitreal injection of 4 mg

9-fluoro-11,21-dihydroxy-16,17-[1-(methylethylidine)bis (oxy)]pregna-1,4-diene-3,20-dione [triamcinolone]
formation of CNV after surgery ([1]; 40 mg to the orbital floor October 1997, left CNV developed June 1998): delayed the formation of CNV after surgery | visual acuity after cataract surgery ([1]; person, left eye, 40 mg to the orbital floor at surgery, acuity 6/24 before surgery): 6/12 | complications of the procedure [2, 5]: no complications of the procedure have ensued | evidence of neovascularisation [2, 5]: without evidence clinically or angiographically of neovascularisation | visual acuity ([2]; 12 months after intravitreal injection of 4 mg, baseline 6/9): 6/9 | visual acuity ([2]; two years after the first injection, second injection at 12 months): 6/9 | cataract in the treated eye ([3]; follow-up to 18 months): this has not been a problem | elevation of the intraocular pressure (commonest side effect) ([3]; intravitreal): around 5 mmHg | endophthalmitis, retinal detachment or vitreous haemorrhage ([3]; several hundred patients treated intravitreally over three years): no case | exudation [4]: control and resorbtion of exudation | resident immune cell activity [4]: modulates the resident immune cell activity | visual acuity [4]: improved visual acuity
